Structures can show the parent of a compound that is named as a salt.
Experiments:
cdk1/cyclinB = cdk1/cyclinB (Homo sapiens, UniProt P06493); experiment: Cyclin dependent kinase 1 assay (cdk1/cyclinB), 32P incorporation, filter plate; format: biochemical; settings: retinoblastoma substrate, 12 mM ATP, 25° C., 15 minutes; read-out: Inhibition of Cdks: IC50 Cdk1/B
Experimental: (§1) Cyclin Dependent Kinase 1 and 2 Assays (cdk1/cyclinB, cdk2/cyclinA, cdk2/cyclinE)
(§2) Enzyme assays for IC50 determinations and kinetic evaluation are performed in a 96-well filter plate (Millipore MADVN6550) in a total volume of 0.1 mL of 20 mM TRIS (tris[hydroxymethyl]aminomethane), at pH 7.4, 50 mM NaCl, 1 mM dithiothreitol, 10 mM MgCl2, […] containing 0.25 μCi of [^32P]ATP, 20 ng of enzyme (either cdk1/B, cdk2/A, or cdk2E), 1 μg retinoblastoma and appropriate dilutions of the particular invention compound. All components except the ATP are added to the wells, and the plate is placed on a plate mixer for 2 minutes. The reaction is begun by addition of [^32P]ATP, and the plate is incubated at 25° C. for 15 minutes. The reaction is terminated by addition of 0.1 mL of 20% TCA. The plate is kept at 4° C. for at least 1 hour to allow the substrate to precipitate. The wells are then washed 5 times with 0.2 mL of 10% TCA and ^32P incorporation determined with a beta plate counter (Wallac Inc., Gaithersburg, Md.).

cdk4/cyclinD = cdk4/cyclinD (Homo sapiens, UniProt P11802); experiment: Cyclin Dependent Kinase 4 (cdk-4) Assay, 32P incorporation, filter plate; format: biochemical; settings: retinoblastoma substrate, 25 μM ATP, 25° C., 15 minutes; read-out: Inhibition of Cdks: IC50 Cdk4D
Chain of cdk4/cyclinD (P11802 whole entry, species assumed): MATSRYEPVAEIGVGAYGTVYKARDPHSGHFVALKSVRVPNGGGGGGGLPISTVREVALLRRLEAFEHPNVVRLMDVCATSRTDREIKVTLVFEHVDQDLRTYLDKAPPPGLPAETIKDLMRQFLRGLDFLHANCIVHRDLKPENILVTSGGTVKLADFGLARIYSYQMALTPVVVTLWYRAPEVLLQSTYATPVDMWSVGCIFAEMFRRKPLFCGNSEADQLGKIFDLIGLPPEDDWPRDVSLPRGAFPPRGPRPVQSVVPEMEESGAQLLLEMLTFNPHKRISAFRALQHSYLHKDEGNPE
Chain of cdk4/cyclinD (P24385 whole entry partner, species assumed): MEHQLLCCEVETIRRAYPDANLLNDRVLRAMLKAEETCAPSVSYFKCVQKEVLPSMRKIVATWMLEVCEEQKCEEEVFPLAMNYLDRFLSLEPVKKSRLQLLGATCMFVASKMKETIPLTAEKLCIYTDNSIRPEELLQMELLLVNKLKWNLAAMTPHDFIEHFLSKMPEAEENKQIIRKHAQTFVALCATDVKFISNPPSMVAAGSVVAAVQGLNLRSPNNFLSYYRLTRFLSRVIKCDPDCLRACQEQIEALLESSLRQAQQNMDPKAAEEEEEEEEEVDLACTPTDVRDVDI
Experimental: Cyclin Dependent Kinase 4 (cdk-4) Assay
Enzyme assays for IC50 determinations and kinetic evaluation are performed in 96-well filter plates (Millipore MADVN6550). The total volume is 0.1 mL containing a final concentration of 20 mM TRIS (tris[hydroxymethyl]aminomethane), at pH 7.4, 50 mM NaCl, 1 mM dithiothreitol, 10 mM MgCl2, 25 μM ATP containing 0.25 μCi of [^32P]ATP, 20 ng of cdk4, 1 μg of retinoblastoma, and appropriate dilutions of a compound of the present invention. All components except the ATP are added to the wells, and the plate is placed on a plate mixer for 2 minutes. The reaction is started by adding [^32P]ATP, and the plate is incubated at 25° C. for 15 minutes. The reaction is terminated by addition of 0.1 mL of 20% trichloroacetic acid (TCA). The plate is kept at 4° C. for at least 1 hour to allow the substrate to precipitate. The wells are then washed 5 times with 0.2 mL of 10% TCA and ^32P incorporation is determined with a beta plate counter (Wallac Inc., Gaithersburg, Md.).

cdk2/cyclinE = cdk2/cyclinE (Homo sapiens, UniProt P24941); experiment: Cyclin dependent kinase 2 assay (cdk2/cyclinE), 32P incorporation, filter plate; format: biochemical; settings: retinoblastoma substrate, 12 mM ATP, 25° C., 15 minutes; read-out: Inhibition of Cdks: IC50 Cdk2/E
Experimental: as §1, §2

cdk2/cyclinA = cdk2/cyclinA (Homo sapiens, UniProt P24941); experiment: Cyclin dependent kinase 2 assay (cdk2/cyclinA), 32P incorporation, filter plate; format: biochemical; settings: retinoblastoma substrate, 12 mM ATP, 25° C., 15 minutes; read-out: Inhibition of Cdks: IC50 Cdk2/A
Experimental: as §1, §2

Chain of cdk1/cyclinB (P06493 whole entry, species assumed): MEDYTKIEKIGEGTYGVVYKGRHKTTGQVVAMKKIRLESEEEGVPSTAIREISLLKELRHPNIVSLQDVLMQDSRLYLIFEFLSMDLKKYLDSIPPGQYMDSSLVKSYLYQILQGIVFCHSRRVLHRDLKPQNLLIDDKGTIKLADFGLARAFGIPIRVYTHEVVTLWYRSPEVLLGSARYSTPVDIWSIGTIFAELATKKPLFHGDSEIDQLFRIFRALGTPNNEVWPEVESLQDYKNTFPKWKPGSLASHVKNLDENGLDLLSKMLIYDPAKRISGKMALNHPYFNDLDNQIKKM
Chain of cdk1/cyclinB (P14635 whole entry partner, species assumed): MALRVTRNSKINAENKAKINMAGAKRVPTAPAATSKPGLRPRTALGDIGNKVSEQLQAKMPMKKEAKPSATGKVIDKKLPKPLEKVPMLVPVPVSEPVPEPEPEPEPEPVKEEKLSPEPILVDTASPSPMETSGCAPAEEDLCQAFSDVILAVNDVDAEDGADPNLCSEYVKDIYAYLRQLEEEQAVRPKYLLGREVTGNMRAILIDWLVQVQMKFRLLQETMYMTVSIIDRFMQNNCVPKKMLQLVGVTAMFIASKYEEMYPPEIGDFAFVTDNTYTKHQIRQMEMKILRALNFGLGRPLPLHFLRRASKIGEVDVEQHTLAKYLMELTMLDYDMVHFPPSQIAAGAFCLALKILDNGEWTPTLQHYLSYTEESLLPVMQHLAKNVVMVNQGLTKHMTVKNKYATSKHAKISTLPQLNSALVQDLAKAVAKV

| Structure (SMILES) | IC50 (cdk1/cyclinB) [nM] | IC50 (cdk4/cyclinD) [nM] | melting point | IC50 (cdk2/cyclinE) [nM] | IC50 (cdk2/cyclinA) [nM] |
| --- | --- | --- | --- | --- | --- |
| CC(=O)N1CCN(c2ccc(Nc3ncc4ccc(NC(=O)NC(C)(C)C)nc4n3)cc2)CC1 [Compound 5, 1-{2-[4-(4-Acetyl-piperazin-1-yl)-phenylamino]-pyrido[2,3-d]pyrimidin-7-yl}-3-tert-butyl-urea] | 463 | 37 | 206 to 208 °C (dec.) | 130 | 130 |
| CCCN(CCC)C(=O)Nc1ccc2cnc(Nc3ccc(N4CCNCC4)cc3)nc2n1 [Compound 86, 3-[2-(4-Piperazin-1-yl-phenylamino)-pyrido[2,3-d]pyrimidin-7-yl]-1,1-dipropyl urea] | > 5000 | > 5000 | 190 °C (dec.) | > 5000 | > 5000 |
| Cc1c(F)c(NC(=O)NC(C)C)nc2nc(Nc3ccc(N4CCNCC4)cc3)ncc12 [Compound 114, 1-[6-Fluoro-5-methyl-2-(4-piperazin-1-yl-phenylamino)-pyrido[2,3-d]pyrimidin-7-yl]-3-isopropyl-urea] | > 5000 | > 5000 | 208 °C (dec.) | > 5000 | > 5000 |
| CCNC(=O)Nc1cc(C)c2cnc(Nc3ccc(N4CCNCC4)cc3)nc2n1 [Compound 28, 1-Ethyl-3-[5-methyl-2-(4-piperazin-1-yl-phenylamino)-pyrido[2,3-d]pyrimidin-7-yl]-urea] | > 5000 | > 5000 | 220 to 222 °C | > 5000 | > 5000 |
| CN1CCN(C(=O)Nc2ccc3cnc(Nc4ccc(N5CCNCC5)cc4)nc3n2)CC1 [Compound 84, 4-Methyl-piperazine-1-carboxylic acid [2-(4-piperazin-1-yl-phenylamino)-pyrido[2,3-d]pyrimidin-7-yl]-amide] | > 5000 | > 5000 | 200 °C (dec.) | > 5000 | > 5000 |
| CC(C)(C)NC(=O)Nc1ccc2cnc(Nc3ccc(N4CCN(C(=O)OC(C)(C)C)CC4)cc3)nc2n1 [Compound 79, 4-{4-[7-(3-tert-Butyl-ureido)-pyrido[2,3-d]pyrimidin-2-ylamino]-phenyl}-piperazine-1-carboxylic acid tert-butyl ester] | > 5000 | > 5000 | 225 °C (dec.) | > 5000 | 1070 |
| NCCNC(=O)Nc1ccc2cnc(Nc3ccc(F)cc3)nc2n1 [Compound 98, 1-(2-Amino-ethyl)-3-[2-(4-fluoro-phenylamino)-pyrido[2,3-d]pyrimidin-7-yl]-urea] | 442 | 1050 | 217 to 220 °C | 140 | 157 |
| Cc1cc(NC(=O)NC(C)(C)C)nc2nc(Nc3ccc(N4CCNCC4)cc3)ncc12 [Compound 4, 1-tert-Butyl-3-[5-methyl-2-(4-piperazin-1-yl-phenylamino)-pyrido[2,3-d]pyrimidin-7-yl]-urea] | > 5000 | 1500 | 230 to 232 °C (dec.) | > 5000 | > 5000 |
| O=C(Nc1ccc2cnc(Nc3ccc(N4CCNCC4)cc3)nc2n1)NC1CCCCC1 (as salt: salt) [Compound 9, 1-Cyclohexyl-3-[2-(4-piperazin-1-yl-phenylamino)-pyrido[2,3-d]pyrimidin-7-yl]-urea] | – | – | 200 °C (dec.) | – | – |
| C[C@@H]1CN(c2ccc(Nc3ncc4ccc(N(C)C(=O)NC5CCCCC5)nc4n3)cc2)C[C@H](C)N1 [Compound 106, 3-Cyclohexyl-1-{2-[4-(cis-3,5-dimethyl-piperazin-1-yl)-phenylamino]-pyrido[2,3-d]pyrimidin-7-}-1-methyl-urea] | – | – | 170 °C (dec.) | 440 | 350 |

— patent publication US7053070B2, “Pyrido[2,3-d]pyrimidine-2,7-diamine kinase inhibitors” (Warner-Lambert Company, priority 2000, dated 2006)
